Assay results taken from article PMC6983991, “Toxicity and Anti-promastigote Activity of Benzoxazinoid Analogs Against Leishmania (Viannia) braziliensis and Leishmania (Leishmania) infantum” (Advanced Pharmaceutical Bulletin, 2019).
In brackets after ≈: the same amount, converted by molar mass. Read-outs that look alike come from different tables or passages of the source.

Key:
[1] = system: Leishmania (V.) braziliensis (MHOM/BR/75/M2903) promastigotes; test: Anti-promastigote activity, MTT colorimetric assay; type: cell-based
Procedure: (§1) Promastigotes of Leishmania (V.) braziliensis (MHOM/BR/75/M2903) and Leishmania (L.) infantum (MHOM/BR/74/PP75) were grown in a biphasic medium. The solid phase was composed of Nicolle–Novy–MacNeals (NNN) medium with 15% defibrillated rabbit blood. Already in the liquid phase, we employed Roswell Park Memorial Institute (RPMI)-1640 (Sigma-Aldrich, St. Louis, USA) or Liver Infusion Tryptose (LIT) medium with 15% fetal bovine serum (Gibco – Thermo Fisher Scientific, Waltham USA), both supplemented with 1% of penicillin-streptomycin antibiotic solutions (10.000 U/mL of penicillin and 10.000 μg/mL of streptomycin; Gibco – Thermo Fisher Scientific, Waltham, USA). Cultures were maintained in an incubator at 25°C until parasites reached logarithmic phase (4 days). Next, the cultures were centrifuged and the pellet was suspended in RPMI-1640 or LIT for counting promastigotes using a Neubauer hemocytometer under an optical microscope (Axiostar Plus Carl Zeiss, Jena, Germany) at 400x magnification. Subsequently, parasites were diluted in RPMI-1640 or LIT medium at a final concentration of 1 x 10^6parasites/mL for use in antileishmanial assays.
(§2) The 50% inhibitory concentration (IC50) against L. (V.) braziliensis and L. (L.) infantum was evaluated by determination of the parasite viability using the colorimetric 3-(4,5-dimethylthiazol-2-yl)-2,5-diphenyltetrazolium bromide (MTT) method.[19] Initially, 100 μL of the promastigote suspension prepared in RPMI-1640 or LIT medium (1 × 10^6cells/mL) was added in each well of the 96-well microplate. Parasites were then treated with two-fold serial dilutions (from 3.12 to 400 µg/mL) of Bex-derived analogs prepared in 10% dimethyl sulfoxide (DMSO) (Sigma-Aldrich, St. Louis, USA) and the microplates were incubated at 25°C for 48 h. Next, 20 μL of MTT solution at 5 mg/mL (Sigma-Aldrich, St. Louis, USA) was added to the parasite cultures and the plates were covered with laminated paper and incubated at 37°C for 4 h. Finally, the plates were centrifuged at 1500 rpm for 15 min at 4°C (Heraeus-Megafuge 11R Centrifuge - Thermo Fisher Scientific, Waltham USA) and the formazan crystals formed were dissolved by the addition of 200 μL 10% DMSO. After further incubation for 5 min at room temperature, absorbance at 570 nm of samples measured using a microplate reader (Metller Toledo, Brazil). Meglumine antimoniate (Glucantime®Sanofi-aventis, France) and amphotericin B (Eurofarma, Brazil) were included as positive controls, and 10% DMSO solution was used as a solvent control. Samples containing RPM1-1640 or LIT only were used to control the sterility of media and samples containing inoculum and medium, but not compounds, were employed as growth controls.

[2] = system: Leishmania (L.) infantum (MHOM/BR/74/PP75) promastigotes; test: Anti-promastigote activity, MTT colorimetric assay; type: cell-based
Procedure: as §1, §2

[3] = Cytotoxicity, MTT assay; type: cell-based; conditions: hamster spleen cells, 48 h exposure
Procedure: (§3) Hamster spleen cells were used to test cytotoxicity. The cells were kindly provided by Dr. Rosy Iara Maciel de Azambuja Ribeiro from of Laboratory of Experimental Pathology/UFSJ. The cells were cultivated in saline solution (NaCl 0.9%; Synth, Brazil) and maintained at 37°C in an incubator with an atmosphere containing 5% CO2 (Thermo Fisher Scientific, Waltham, USA).
(§4) Cytotoxic concentration determinations for 50% of the cells in culture (CC50) were evaluated by using the colorimetric 3-(4,5-dimethylthiazol-2-yl)-2,5-diphenyltetrazolium bromide (MTT) method, following protocols outlined in a previous study.[19] Briefly, spleen cells were exposed for 48h to several concentrations of compounds (3, 6.25, 12.5, 25, 50, 100, 200, 400 and 800 µg/mL) and, afterward, the MTT assay was used to quantify the cell viability as was done using the anti-promastigote assay. Finally, CC50 values were calculated by linear regression analysis of absorbance values obtained previously.[20]
(§5) The selectivity of Bex analogs and antileishmanial agents was determined to evaluate the safety of compounds. Thus, the selectivity index (SI) was calculated through the ratio between the CC50 of compounds against the hamster spleen cells and the geometric mean (GM) of IC50 values calculated for L. (V.) braziliensis and L. (L.) infantum.[21] In the case where CC50 was higher than the highest concentration tested of the compound, to calculate the SI, the value used was 400. The larger SI was indicative of a safer molecule.

[4] = system: Escherichia coli; set-up: method as in PMID 16042337; conditions: microdilution broth assays; cited from earlier work
[5] = system: Streptococcus mutans; set-up: method as in PMID 16042337; conditions: microdilution broth assays; cited from earlier work
[6] = system: Staphylococcus aureus; set-up: method as in PMID 16042337; conditions: microdilution broth assays; cited from earlier work
[7] = system: E. coli extended-spectrum β-lactamases produced; set-up: method as in PMID 26166773; conditions: disc diffusion, 2 mg/disk; cited from earlier work
[8] = system: Pseudomonas aeruginosa; set-up: method as in PMID 26166773; conditions: disc diffusion, 2 mg/disk; cited from earlier work
[9] = system: Bacillus subtilis; set-up: method as in PMID 26166773; conditions: disc diffusion, 2 mg/disk; cited from earlier work
[10] = system: S. aureus methicillin-resistant; set-up: method as in PMID 26166773; conditions: disc diffusion, 2 mg/disk; cited from earlier work
[11] = system: Klebsiella pneumoniae; set-up: method as in PMID 26166773; conditions: disc diffusion, 2 mg/disk; cited from earlier work
[12] = system: Enterococcus faecalis; set-up: method as in PMID 26166773; conditions: disc diffusion, 2 mg/disk; cited from earlier work
[13] = system: rat mast cells stimulated with concanavalin A and sensitized with immunoglobulin E; set-up: method as in PMID 2453615; conditions: cited from earlier work
[14] = system: reverse transcriptase from human immunodeficiency virus(HIV); conditions: cited from earlier work
[15] = system: Hamster spleen cells; test: Cytotoxicity, MTT assay; type: cell-based; conditions: 48 h exposure
Procedure: as §3, §4, §5

[16] = geometric mean of IC50 in LIT and RPMI-1640, read-out: GM (geometric mean of IC50 values) L. braziliensis
[17] = promastigotes, LIT medium, 48 h, 25°C, MTT, read-out: IC50 L. braziliensis LIT
[18] = promastigotes, RPMI-1640 medium, 48 h, 25°C, MTT, read-out: IC50 L. braziliensis RPMI-1640
[19] = geometric mean of IC50 in LIT and RPMI-1640, read-out: GM (geometric mean of IC50 values) L. infantum
[20] = promastigotes, LIT medium, 48 h, 25°C, MTT, read-out: IC50 L. infantum LIT
[21] = promastigotes, RPMI-1640 medium, 48 h, 25°C, MTT, read-out: IC50 L. infantum RPMI-1640
[22] = geometric mean of IC50 in LIT and RPMI-1640
[23] = promastigotes, LIT medium, 48 h, 25°C, MTT
[24] = promastigotes, RPMI-1640 medium, 48 h, 25°C, MTT

Compound	IC50 [1, 16] [µg/mL]	IC50 [1, 17] [µg/mL]	IC50 [1, 18] [µg/mL]	IC50 [2, 19] [µg/mL]	IC50 [2, 20] [µg/mL]	IC50 [2, 21] [µg/mL]	CC50 at 48 h [3] [µg/mL]	other results
C[C@@H]1[C@H](O)[C@@H](C)/C=C/C=C/C=C/C=C/C=C/C=C/C=C/[C@H](O[C@@H]2O[C@H](C)[C@@H](O)[C@H](N)[C@@H]2O)C[C@@H]2O[C@](O)(C[C@@H](O)C[C@@H](O)[C@H](O)CC[C@@H](O)C[C@@H](O)CC(=O)O[C@H]1C)C[C@H](O)[C@H]2C(=O)O [ANFO, Amphotericin B, reference compound]	33.4 (≈ 36.1 µM)	33.3 ± 3.66 (≈ 36 µM)	33.4 ± 3.01 (≈ 36.1 µM)	41.5 (≈ 45 µM)	41.6 ± 4.27 (≈ 45.1 µM)	41.5 ± 0.99 (≈ 44.9 µM)	89.3 ± 2.24 (≈ 96.7 µM)	
O=c1[nH]c2ccccc2o1 [BOA, benzoxazolin-2-one]								Concentration exhibiting antibacterial effects [4]: 1,000 μg/mL; Concentration exhibiting antibacterial effects [5]: 500 µg/mL; Concentration exhibiting antibacterial effects [6]: 500 µg/mL
O=C1COc2ccccc2N1O [Bex1]		212 ± 6.04 (≈ 1280 µM)	238 ± 6.57 (≈ 1440 µM)		174 ± 3.39 (≈ 1050 µM)	188 ± 3.58 (≈ 1140 µM)		
CC1Oc2ccccc2N(O)C1=O (centres unmarked) [Bex2]	106 (≈ 591 µM)	103 ± 4.36 (≈ 575 µM)	109 ± 4.44 (≈ 608 µM)	108 (≈ 605 µM)	106 ± 5.61 (≈ 592 µM)	111 ± 5.69 (≈ 620 µM)	274.3 ± 1.87 (≈ 1530 µM)	
CCC1Oc2ccccc2N(O)C1=O (centres unmarked) [Bex3]	94.5 (≈ 489 µM)	92 ± 6.19 (≈ 476 µM)	97 ± 6.24 (≈ 502 µM)	91 (≈ 471 µM)	89 ± 6.43 (≈ 461 µM)	93 ± 6.48 (≈ 481 µM)	106 ± 2.26 (≈ 547 µM)	
O=C1C(O)Oc2ccccc2N1O (centres unmarked) [DIBOA, 2,4-dihydroxy-1,4-benzoxazin-3-one]								Concentration exhibiting antibacterial effects [4]: 1,000 μg/mL; Concentration exhibiting antibacterial effects [5]: 500 µg/mL; Concentration exhibiting antibacterial effects [6]: 500 µg/mL
COc1ccc2c(c1)OC(O)C(=O)N2O (centres unmarked) [DIMBOA, 2,4-dihydroxy-7-methoxy-1,4-benzoxazin-3-one]								Antibacterial activity [7]: active; Antibacterial activity [8]: active; Antibacterial activity [9]: active; Antibacterial activity [10]: active; Antibacterial activity [11]: active; Antibacterial activity [12]: active
O=C1Nc2ccccc2OC1O (centres unmarked) [HBOA, 2-hydroxy-1,4-benzoxazin-3-one]								Concentration exhibiting antibacterial effects [4]: 1,000 μg/mL; Concentration exhibiting antibacterial effects [5]: 500 µg/mL; Concentration exhibiting antibacterial effects [6]: 500 µg/mL; Effect on levels of histamine released from rat mast cells [13]: able to reduce levels of histamine
COc1ccc2c(c1)OC(O)C(=O)N2 (centres unmarked) [HMBOA]								Effect on levels of histamine released from rat mast cells [13]: able to reduce levels of histamine
COc1ccc2[nH]c(=O)oc2c1 [MBOA, 6-methoxy-benzoxazolin-2-one]								Inhibition of HIV reverse transcriptase [14]: able to inhibit; Effect on levels of histamine released from rat mast cells [13]: able to reduce levels of histamine
O=C1COc2cccnc2N1O [Pyr1]	111 (≈ 671 µM)	108 ± 5.91 (≈ 650 µM)	115 ± 6.04 (≈ 692 µM)	101 (≈ 608 µM)	99 ± 5.61 (≈ 596 µM)	103 ± 5.64 (≈ 620 µM)	> 400	
CC1Oc2cccnc2N(O)C1=O (centres unmarked) [Pyr2]	102 (≈ 569 µM)	100 ± 5.18 (≈ 555 µM)	105 ± 5.23 (≈ 583 µM)	115 (≈ 638 µM)	112 ± 5.34 (≈ 622 µM)	118 ± 5.45 (≈ 655 µM)	> 400	
CCC1Oc2cccnc2N(O)C1=O (centres unmarked) [Pyr3]		141 ± 5.94 (≈ 726 µM)	152 ± 6.17 (≈ 783 µM)		149 ± 6.35 (≈ 767 µM)	160 ± 6.62 (≈ 824 µM)		
CCCC1Oc2cccnc2N(O)C1=O (centres unmarked) [Pyr4]	100 (≈ 483 µM)	98 ± 5.94 (≈ 471 µM)	103 ± 5.99 (≈ 495 µM)	93 (≈ 447 µM)	91 ± 6 (≈ 437 µM)	95 ± 6.05 (≈ 456 µM)	202 ± 2.11 (≈ 969 µM)	
CCCCC1Oc2cccnc2N(O)C1=O (centres unmarked) [Pyr5]		142 ± 3.67 (≈ 639 µM)	154 ± 3.85 (≈ 693 µM)		135 ± 4.13 (≈ 607 µM)	143 ± 4.25 (≈ 643 µM)		
Meglumine antimoniate [reference compound]								GM (geometric mean of IC50 values) L. braziliensis [1, 22]: 97.5 µg/mL; IC50 L. braziliensis LIT [1, 23]: 97 ± 4.34 µg/mL; IC50 L. braziliensis RPMI-1640 [1, 24]: 98 ± 4.45 µg/mL; GM (geometric mean of IC50 values) L. infantum [2, 22]: 99.47 µg/mL; IC50 L. infantum LIT [2, 23]: 97 ± 3.14 µg/mL; IC50 L. infantum RPMI-1640 [2, 24]: 102 ± 3.54 µg/mL; CC50 [15]: >400 µg/mL
